Test results: ChEMBL document CHEMBL5143721, “Novel Hydroxychalcone-Based Dual Inhibitors of Aldose Reductase and α-Glucosidase as Potential Therapeutic Agents against Diabetes Mellitus and Its Complications” (J Med Chem, 2022)
Blank lines part the entries; values can stand above or below the compound they belong to. Activity calls are given as the source filed them. The calls are words filed in the database; no cut-off is given here.

Key:
[1] = Inhibition of Saccharomyces cerevisiae Alpha-glucosidase using p-nitrophenyl glucopyranoside as substrate preincubated for 5 mins followed by substrate addition and measured for 30 mins
[2] = Inhibition of Wistar rat kidney ALR1 using sodium D-glucuronate as substrate preincubated for 10 mins in presence of NADPH followed by substrate addition and measured after 4 mins; format: tissue-based
[3] = Antioxidant activity assessed as DPPH radical scavenging activity at 1 uM incubated for 30 mins by DPPH assay relative to control; format: functional
[4] = Antioxidant activity assessed as DPPH radical scavenging activity at 50 uM incubated for 30 mins by DPPH assay relative to control; format: functional
Brain [5] = assay: Antioxidant activity in rat brain homogenate assessed as inhibition of lipid peroxidation by measuring MDA concentration at 10 uM relative to control; format: functional, tissue-based; design: scale not given: the % may be the effect or the level left
[6] = Octanol/buffer distribution coefficient, log D of compound at pH 7.4 incubated for 24 hrs by shake flask based HPLC method; format: physicochemical
[7] = Antioxidant activity assessed as DPPH radical scavenging activity at 5 uM incubated for 30 mins by DPPH assay relative to control; format: functional
Brain [8] = assay: Antioxidant activity in rat brain homogenate assessed as inhibition of lipid peroxidation by measuring MDA concentration at 100 uM by TBARS assay relative to control; format: functional, tissue-based; design: scale not given: the % may be the effect or the level left
Brain [9] = assay: Antioxidant activity in rat brain homogenate assessed as inhibition of lipid peroxidation by measuring MDA concentration at 1 uM by TBARS assay relative to control; format: functional, tissue-based; design: scale not given: the % may be the effect or the level left
[10] = Antioxidant activity assessed as DPPH radical scavenging activity at 100 uM incubated for 30 mins by DPPH assay relative to control; format: functional
Brain [11] = assay: Antioxidant activity in rat brain homogenate assessed as inhibition of lipid peroxidation by measuring MDA concentration at 50 uM by TBARS assay relative to control; format: functional, tissue-based; design: scale not given: the % may be the effect or the level left
Brain [12] = assay: Antioxidant activity in rat brain homogenate assessed as inhibition of lipid peroxidation by measuring MDA concentration at 5 uM by TBARS assay relative to control; format: functional, tissue-based; design: scale not given: the % may be the effect or the level left
[13] = Antioxidant activity assessed as DPPH radical scavenging activity at 10 uM incubated for 30 mins by DPPH assay relative to control; format: functional
Saccharomyces cerevisiae = assay: Non competitive inhibition of Saccharomyces cerevisiae alpha-glucosidase using p-nitrophenyl glucopyranoside as substrate up to 200 uM by Lineweaver-Burk plot analysis
Rattus norvegicus [14] = organism: Rattus norvegicus; assay: Selectivity index, ratio of IC50 for Wistar rat kidney ALR1 to IC50 for Wistar rat lens ALR2
[15] = Inhibition of Wistar rat lens ALR2 using D,L-glyceraldehyde as substrate preincubated for 10 mins in presence of NADPH followed by substrate addition and measured after 4 mins; format: tissue-based
Rattus norvegicus [16] = organism: Rattus norvegicus; assay: Non competitive inhibition of Wistar rat lens ALR2 using D,L-glyceraldehyde as substrate up to 200 uM by Lineweaver-Burk plot analysis; format: tissue-based
Rattus norvegicus [17] = assay: Antidiabetic activity against STZ-induced diabetic Sprague-Dawley rat model assessed as reduction in fasting blood glucose level at 80 mg/kg, IG administered once daily for 28 days; format: functional; design: scale not given: the % may be the effect or the level left; conditions: time 28 day
[18] = In vivo inhibition of ALR2 in STZ-induced diabetic Sprague-Dawley rat model assessed as reduction in ALR2 activity in lens at 80 mg/kg, IG administered once daily for 28 days relative to control; format: functional; design: scale not given: the % may be the effect or the level left; conditions: time 28 day
Rattus norvegicus [19] = assay: Antidiabetic activity against STZ-induced diabetic Sprague-Dawley rat model assessed as reduction in triglycerides level in liver at 80 mg/kg, IG administered once daily for 28 days relative to control; format: functional; design: scale not given: the % may be the effect or the level left; conditions: time 28 day
Rattus norvegicus [20] = assay: Antidiabetic activity against STZ-induced diabetic Sprague-Dawley rat model assessed as reduction in triglycerides level in liver at 160 mg/kg, IG administered once daily for 28 days relative to control; format: functional; design: scale not given: the % may be the effect or the level left; conditions: time 28 day
HEK-293T = assay: Cytotoxicity against HEK293T cells at 15 to 200 micromol/L by MTT assay; format: toxicity, cell-based; conditions: human, dose 15-200 µmol/L
Rattus norvegicus [21] = assay: Antidiabetic activity against STZ-induced diabetic Sprague-Dawley rat model assessed as increase in liver glycogen levels at 160 mg/kg, IG administered once daily for 28 days; format: functional; conditions: time 28 day
[22] = In vivo inhibition of ALR2 in STZ-induced diabetic Sprague-Dawley rat model assessed as reduction in sorbitol accumulation in red blood cells at 160 mg/kg, IG administered once daily for 28 days by colorimetric assay relative to control; format: functional; design: scale not given: the % may be the effect or the level left; conditions: time 28 day
[23] = In vivo inhibition of ALR2 in STZ-induced diabetic Sprague-Dawley rat model assessed as reduction in sorbitol accumulation in lens at 80 mg/kg, IG administered once daily for 28 days by colorimetric assay relative to control; format: functional; design: scale not given: the % may be the effect or the level left; conditions: time 28 day
[24] = In vivo inhibition of ALR2 in STZ-induced diabetic Sprague-Dawley rat model assessed as reduction in ALR2 activity in lens at 160 mg/kg, IG administered once daily for 28 days relative to control; format: functional; design: scale not given: the % may be the effect or the level left; conditions: time 28 day
Rattus norvegicus [25] = assay: Antidiabetic activity against STZ-induced diabetic Sprague-Dawley rat model assessed as reduction in total cholesterol level in liver at 80 mg/kg, IG administered once daily for 28 days relative to control; format: functional; design: scale not given: the % may be the effect or the level left; conditions: time 28 day
Rattus norvegicus [26] = assay: Antidiabetic activity against 12 hrs fasted STZ-induced diabetic Sprague-Dawley rat model assessed as reduction in blood glucose level at 160 mg/kg, IG administered once daily for 28 days followed by glucose addition after 30 mins post cpd treatment and measured after 30 mins post glucose treatment by oral glucose tolerance test; format: functional, organism-based; conditions: time 673.0 hrs
Rattus norvegicus [27] = assay: Antioxidant activity against STZ-induced diabetic Sprague-Dawley rat model assessed as reduction in GSH level at 80 mg/kg, IG administered once daily for 28 days relative to control; format: functional; design: scale not given: the % may be the effect or the level left; conditions: time 28 day
Rattus norvegicus [28] = assay: Antioxidant activity against STZ-induced diabetic Sprague-Dawley rat model assessed as reduction in GSH level at 160 mg/kg, IG administered once daily for 28 days relative to control; format: functional; design: scale not given: the % may be the effect or the level left; conditions: time 28 day
[29] = In vivo inhibition of ALR2 in STZ-induced diabetic Sprague-Dawley rat model assessed as reduction in sorbitol accumulation in red blood cells at 80 mg/kg, IG administered once daily for 28 days by colorimetric assay relative to control; format: functional; design: scale not given: the % may be the effect or the level left; conditions: time 28 day
Rattus norvegicus [30] = assay: Antioxidant activity against STZ-induced diabetic Sprague-Dawley rat model assessed as reduction in SOD level at 80 mg/kg, IG administered once daily for 28 days relative to control; format: functional; design: scale not given: the % may be the effect or the level left; conditions: time 28 day
Rattus norvegicus [31] = assay: Antidiabetic activity against STZ-induced diabetic Sprague-Dawley rat model assessed as reduction in total cholesterol level in serum at 160 mg/kg, IG administered once daily for 28 days relative to control; format: functional; design: scale not given: the % may be the effect or the level left; conditions: time 28 day
Rattus norvegicus [32] = assay: Antioxidant activity against STZ-induced diabetic Sprague-Dawley rat model assessed as reduction in MDA level at 80 to 160 mg/kg, IG administered once daily for 28 days relative to control; format: functional, organism-based; conditions: dose 80-160 mg/kg, time 28.0 day
Rattus norvegicus [33] = assay: Antioxidant activity against STZ-induced diabetic Sprague-Dawley rat model assessed as reduction in SOD level at 160 mg/kg, IG administered once daily for 28 days relative to control; format: functional; design: scale not given: the % may be the effect or the level left; conditions: time 28 day
[34] = In vivo inhibition of ALR2 in STZ-induced diabetic Sprague-Dawley rat model assessed as reduction in sorbitol accumulation in lens at 160 mg/kg, IG administered once daily for 28 days by colorimetric assay relative to control; format: functional; design: scale not given: the % may be the effect or the level left; conditions: time 28 day
Rattus norvegicus [35] = assay: Antidiabetic activity against STZ-induced diabetic Sprague-Dawley rat model assessed as reduction in fasting blood glucose level at 160 mg/kg, IG administered once daily for 28 days; format: functional; design: scale not given: the % may be the effect or the level left; conditions: time 28 day
Rattus norvegicus [36] = assay: Antidiabetic activity against STZ-induced diabetic Sprague-Dawley rat model assessed as reduction in triglycerides level in serum at 80 mg/kg, IG administered once daily for 28 days relative to control; format: functional; design: scale not given: the % may be the effect or the level left; conditions: time 28 day
Rattus norvegicus [37] = assay: Antidiabetic activity against STZ-induced diabetic Sprague-Dawley rat model assessed as reduction in triglycerides level in serum at 160 mg/kg, IG administered once daily for 28 days relative to control; format: functional; design: scale not given: the % may be the effect or the level left; conditions: time 28 day
Rattus norvegicus [38] = assay: Antidiabetic activity against STZ-induced diabetic Sprague-Dawley rat model assessed as reduction in total cholesterol level in serum at 80 mg/kg, IG administered once daily for 28 days relative to control; format: functional; design: scale not given: the % may be the effect or the level left; conditions: time 28 day
Rattus norvegicus [39] = assay: Antidiabetic activity against STZ-induced diabetic Sprague-Dawley rat model assessed as reduction in total cholesterol level in liver at 160 mg/kg, IG administered once daily for 28 days relative to control; format: functional; design: scale not given: the % may be the effect or the level left; conditions: time 28 day

Structure (SMILES): CC(C)=CCCn1c(=O)oc2c(C(=O)/C=C/c3ccc(O)c(O)c3)cccc21
IC50 [1]: 4.13 µM | IC50 [2]: 10.3 µM | Activity [3]: 44.7% | Activity [4]: 97% | Activity (Brain [5]): 73% | logD at 24 h [6]: 1.04 | Activity [7]: 89.8% | Activity (Brain [8]): 96.4% | Activity (Brain [9]): 34.2% | Activity [10]: 98.5% | Activity (Brain [11]): 92.5% | Activity (Brain [12]): 63.2% | Activity [13]: 94.4% | Km (Saccharomyces cerevisiae): 449 µM | Ratio IC50 (Rattus norvegicus [14]): 79.3 | IC50 [15]: 0.13 µM | Km (Rattus norvegicus [16]): 585 µM

Structure (SMILES): COC(=O)Cn1c(=O)oc2c(C(=O)/C=C/c3ccc(O)c(OC)c3)cccc21
IC50 [2]: > 100 µM | Activity [3]: 14.8% | Activity [4]: 82.2% | Activity (Brain [5]): 23.6% | Activity [7]: 25.4% | Activity (Brain [8]): 66.1% | Activity [10]: 92.4% | Activity (Brain [11]): 43% | Activity [13]: 50.3% | Ratio IC50 (Rattus norvegicus [14]): > 7.59 | IC50 [15]: 13.2 µM

Structure (SMILES): COC(=O)Cn1c(=O)oc2c(C(=O)/C=C/c3ccc(O)cc3)cccc21
IC50 [1]: 55.4 µM | IC50 [2]: > 100 µM | Activity [4]: 30% | logD at 24 h [6]: 1.46 | Activity (Brain [8]): 38% | Activity [10]: 46.3% | Activity (Brain [11]): 24.1% | Activity [13]: 10.6% | Ratio IC50 (Rattus norvegicus [14]): > 415 | IC50 [15]: 0.226 µM

These reach a lower IC50 [2]. Values come first.

IC50 [2]: 6.22 µM | logD at 24 h [6]: 0.86 | Ratio IC50 (Rattus norvegicus [14]): 54.6 | IC50 [15]: 0.114 µM
Structure (SMILES): COC(=O)Cn1c(=O)oc2c(C(=O)/C=C/c3ccc(O)c(O)c3)cccc21
Activity (Rattus norvegicus [19]): 30.6% | Activity (Rattus norvegicus [20]): 33.8% | Activity (HEK-293T): Non-Toxic | Activity [3]: 41.2% | Activity (Rattus norvegicus [21]): 36.58% | Activity [4]: 96.5% | Activity (Brain [5]): 77.5% | Activity [22]: 64.7% | Activity [23]: 41.7% | Activity [7]: 89.4% | Activity (Brain [8]): 97.5% | Activity [24]: 52.1% | Activity (Rattus norvegicus [25]): 32.1% | Activity (Rattus norvegicus [17]): 20.5% | Activity (Brain [9]): 35.8% | Activity (Rattus norvegicus [26]): Active | Activity [10]: 97.5% | Activity (Brain [11]): 91.6% | Activity (Rattus norvegicus [27]): 26.8% | Activity (Brain [12]): 60.5% | Activity [18]: 60.8% | Activity (Rattus norvegicus [28]): 52.3% | Activity [29]: 59.7% | Activity (Rattus norvegicus [30]): 35.5% | Activity (Rattus norvegicus [31]): 44.1% | Activity (Rattus norvegicus [32]): Active | Activity [13]: 94.9% | Activity (Rattus norvegicus [33]): 81.3% | Activity [34]: 34.1% | Activity (Rattus norvegicus [35]): 30.4% | Activity (Rattus norvegicus [36]): 44% | Activity (Rattus norvegicus [37]): 56.5% | Activity (Rattus norvegicus [38]): 46% | Activity (Rattus norvegicus [39]): 3.1%

IC50 [2]: 5.29 µM | logD at 24 h [6]: 0.21 | Ratio IC50 (Rattus norvegicus [14]): 44.5 | IC50 [15]: 0.119 µM
Structure (SMILES): CC(/C=C1\SC(=S)N(CC(=O)O)C1=O)=C\c1ccccc1
Activity (Rattus norvegicus [17]): 20.9% | Activity [18]: 62.1%
